Source: patent publication US11572590B2, “Methods for evaluating tumor cell spheroids using 3D microfluidic cell culture device” (Dana-Farber Cancer Institute, Inc., priority 2017, dated 2023)
Like-named read-outs stand apart in the source and are kept apart here.

Key:
Assay in all cases: SelectScreen Kinase Profiling, single point inhibition and IC50 for off-target kinases
Format in all cases: biochemical
[1] = biological target: T1, off-target kinases (Homo sapiens, UniProt O15111); conditions: CHUK (IKK alpha), ATP Km app, Adapta
T1 sequence (O15111 1-745): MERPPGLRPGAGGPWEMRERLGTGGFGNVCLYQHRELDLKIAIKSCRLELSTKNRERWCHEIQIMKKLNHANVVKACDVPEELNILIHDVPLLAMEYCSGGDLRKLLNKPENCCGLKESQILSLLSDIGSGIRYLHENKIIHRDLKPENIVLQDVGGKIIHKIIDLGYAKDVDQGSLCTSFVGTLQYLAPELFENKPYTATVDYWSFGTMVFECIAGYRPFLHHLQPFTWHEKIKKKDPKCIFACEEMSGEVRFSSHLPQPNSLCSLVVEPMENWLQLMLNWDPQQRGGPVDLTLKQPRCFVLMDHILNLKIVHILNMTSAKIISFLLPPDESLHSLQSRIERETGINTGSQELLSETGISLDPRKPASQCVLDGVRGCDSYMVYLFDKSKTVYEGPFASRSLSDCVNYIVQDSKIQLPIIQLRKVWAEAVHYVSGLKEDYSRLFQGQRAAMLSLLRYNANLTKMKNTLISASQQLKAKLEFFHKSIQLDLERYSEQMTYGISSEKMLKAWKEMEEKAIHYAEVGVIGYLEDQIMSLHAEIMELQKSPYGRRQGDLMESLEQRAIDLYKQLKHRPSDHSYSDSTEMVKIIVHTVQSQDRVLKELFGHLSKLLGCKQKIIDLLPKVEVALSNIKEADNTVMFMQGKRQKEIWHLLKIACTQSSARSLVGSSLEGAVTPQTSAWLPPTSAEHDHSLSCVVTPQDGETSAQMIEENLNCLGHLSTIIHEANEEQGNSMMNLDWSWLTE

[2] = biological target: off-target kinases (Homo sapiens, UniProt P43250); conditions: GRK6, ZLYTE, ATP Km app
[3] = biological target: off-target kinases (Homo sapiens, UniProt Q02750); conditions: MAP2K1 (MEK1)
[4] = biological target: T2, off-target kinases (Homo sapiens, UniProt Q05513); conditions: PRKCZ (PKC zeta); Cmpd1 1000 μM; ATP Km app; ZLYTE
T2 sequence (Q05513 1-592): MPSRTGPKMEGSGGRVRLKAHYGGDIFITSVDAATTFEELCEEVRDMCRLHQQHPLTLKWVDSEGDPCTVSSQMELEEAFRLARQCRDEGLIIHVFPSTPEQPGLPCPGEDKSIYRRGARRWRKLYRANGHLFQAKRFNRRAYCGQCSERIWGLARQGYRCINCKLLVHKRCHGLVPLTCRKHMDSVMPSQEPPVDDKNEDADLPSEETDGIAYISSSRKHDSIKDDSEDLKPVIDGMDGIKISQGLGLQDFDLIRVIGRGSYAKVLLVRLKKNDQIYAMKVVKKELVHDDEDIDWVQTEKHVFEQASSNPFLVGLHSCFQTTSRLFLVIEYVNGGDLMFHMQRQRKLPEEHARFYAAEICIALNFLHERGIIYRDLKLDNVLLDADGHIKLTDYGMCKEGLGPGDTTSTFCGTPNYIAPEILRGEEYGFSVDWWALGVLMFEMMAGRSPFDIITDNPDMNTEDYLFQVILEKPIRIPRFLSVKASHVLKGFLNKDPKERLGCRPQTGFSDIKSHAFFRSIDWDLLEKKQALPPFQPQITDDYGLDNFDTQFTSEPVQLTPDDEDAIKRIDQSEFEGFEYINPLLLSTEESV

[5] = biological target: off-target kinases (Homo sapiens, UniProt Q06187); conditions: BTK, ZLYTE, ATP Km app
off-target kinases (Homo sapiens, UniProt Q06187), sequence (Q06187 whole entry): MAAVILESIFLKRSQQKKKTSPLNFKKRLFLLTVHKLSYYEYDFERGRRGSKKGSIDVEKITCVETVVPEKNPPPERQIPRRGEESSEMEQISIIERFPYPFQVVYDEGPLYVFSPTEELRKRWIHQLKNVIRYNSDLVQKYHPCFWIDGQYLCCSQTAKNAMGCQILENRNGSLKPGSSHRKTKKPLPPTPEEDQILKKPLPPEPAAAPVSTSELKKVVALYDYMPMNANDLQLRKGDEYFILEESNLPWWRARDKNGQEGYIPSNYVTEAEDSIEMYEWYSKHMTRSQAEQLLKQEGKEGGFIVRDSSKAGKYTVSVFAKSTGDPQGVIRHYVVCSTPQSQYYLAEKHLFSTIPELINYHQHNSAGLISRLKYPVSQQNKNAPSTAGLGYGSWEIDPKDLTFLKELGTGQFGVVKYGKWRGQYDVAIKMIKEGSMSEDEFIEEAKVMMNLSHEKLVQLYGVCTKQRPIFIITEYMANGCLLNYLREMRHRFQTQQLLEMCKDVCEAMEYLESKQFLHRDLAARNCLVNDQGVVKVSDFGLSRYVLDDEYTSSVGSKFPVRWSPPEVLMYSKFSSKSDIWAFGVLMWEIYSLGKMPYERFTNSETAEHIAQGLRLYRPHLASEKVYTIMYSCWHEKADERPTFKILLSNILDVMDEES

off-target kinases (Homo sapiens, UniProt P43250), sequence (P43250 whole entry): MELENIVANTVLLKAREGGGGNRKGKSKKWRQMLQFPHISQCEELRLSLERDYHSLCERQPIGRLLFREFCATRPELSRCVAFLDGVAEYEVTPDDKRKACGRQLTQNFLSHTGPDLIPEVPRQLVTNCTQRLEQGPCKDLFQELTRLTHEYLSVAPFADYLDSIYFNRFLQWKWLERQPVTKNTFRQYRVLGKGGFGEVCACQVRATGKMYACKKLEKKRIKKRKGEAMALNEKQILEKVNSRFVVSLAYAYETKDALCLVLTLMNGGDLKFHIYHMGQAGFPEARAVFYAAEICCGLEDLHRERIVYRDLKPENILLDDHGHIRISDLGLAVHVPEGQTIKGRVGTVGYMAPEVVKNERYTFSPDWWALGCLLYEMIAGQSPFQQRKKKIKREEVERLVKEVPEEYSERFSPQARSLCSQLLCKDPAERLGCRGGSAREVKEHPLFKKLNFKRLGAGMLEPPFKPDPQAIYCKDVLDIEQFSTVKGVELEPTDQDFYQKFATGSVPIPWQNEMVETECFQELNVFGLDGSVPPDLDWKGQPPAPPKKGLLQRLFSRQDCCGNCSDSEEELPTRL
off-target kinases (Homo sapiens, UniProt Q02750), sequence (Q02750 whole entry): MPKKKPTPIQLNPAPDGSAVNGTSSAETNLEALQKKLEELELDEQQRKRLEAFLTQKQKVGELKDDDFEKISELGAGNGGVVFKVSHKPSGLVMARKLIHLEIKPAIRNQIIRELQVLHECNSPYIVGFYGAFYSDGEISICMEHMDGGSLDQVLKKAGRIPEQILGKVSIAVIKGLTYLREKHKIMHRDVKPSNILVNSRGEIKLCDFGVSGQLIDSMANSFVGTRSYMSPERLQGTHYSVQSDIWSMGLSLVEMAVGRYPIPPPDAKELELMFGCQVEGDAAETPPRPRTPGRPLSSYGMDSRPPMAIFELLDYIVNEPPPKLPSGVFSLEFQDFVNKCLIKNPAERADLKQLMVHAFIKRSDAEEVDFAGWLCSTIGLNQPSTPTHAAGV

Structure (SMILES): N#Cc1cc(-c2ncnc(Nc3ccc(N4CCN(C5COC5)CC4)cc3)n2)ccc1OC1CCOCC1 [Compound 1, 5-(4-((4-(4-(oxetan-3-yl)piperazin-1-yl)phenyl)amino)-1,3,5-triazin-2-yl)-2-((tetrahydro-2H-pyran-4-yl)oxy)benzonitrile]
- inhibition ([1]; read-out: % Inhibition 1): 65%
- inhibition ([1]; read-out: % Inhibition 2): 50%
- inhibition ([1]; read-out: % Inhibition Avg): 58%
- inhibition ([2]; read-out: % Inhibition 1): 2%
- inhibition ([2]; read-out: % Inhibition 2): 2%
- inhibition ([2]; read-out: % Inhibition Avg): 2%
- inhibition ([3]; LanthaScreen Binding, read-out: % Inhibition 1): 6%
- inhibition ([3]; LanthaScreen Binding, read-out: % Inhibition 2): 5%
- inhibition ([3]; LanthaScreen Binding, read-out: % Inhibition Avg): 5%
- inhibition ([3]; ZLYTE, ATP 100, read-out: % Inhibition 1): 7%
- inhibition ([3]; ZLYTE, ATP 100, read-out: % Inhibition 2): 3%
- inhibition ([3]; ZLYTE, ATP 100, read-out: % Inhibition Avg): 5%
- % Inhibition 1 [4]: −18%
- % Inhibition 2 [4]: −16%
- % Inhibition Avg [4]: −17%
- inhibition ([5]; read-out: % Inhibition 1): 3%
- inhibition ([5]; read-out: % Inhibition 2): 6%
- inhibition ([5]; read-out: % Inhibition Avg): 5%
